Data from patent US11998537B2, “Substituted indole dimer compounds” (BRISTOL-MYERS SQUIBB COMPANY, priority 2018, dated 2024).
pIC50: −log10 of the molar value.

Columns and labels:
Type in all cases: cell-based
[1] = target: T1, human TLR8 (Homo sapiens, UniProt Q9NR97); assay: TLR8 inhibition reporter assay (HEK-Blue SEAP); conditions: HEK-Blue cells overexpressing human TLR8, R848 15.9 μM, 22 hour incubation
T1 construct: host or cells: HEK-Blue cells (HEK293-derived reporter line)
T1 sequence (Q9NR97 27-1041): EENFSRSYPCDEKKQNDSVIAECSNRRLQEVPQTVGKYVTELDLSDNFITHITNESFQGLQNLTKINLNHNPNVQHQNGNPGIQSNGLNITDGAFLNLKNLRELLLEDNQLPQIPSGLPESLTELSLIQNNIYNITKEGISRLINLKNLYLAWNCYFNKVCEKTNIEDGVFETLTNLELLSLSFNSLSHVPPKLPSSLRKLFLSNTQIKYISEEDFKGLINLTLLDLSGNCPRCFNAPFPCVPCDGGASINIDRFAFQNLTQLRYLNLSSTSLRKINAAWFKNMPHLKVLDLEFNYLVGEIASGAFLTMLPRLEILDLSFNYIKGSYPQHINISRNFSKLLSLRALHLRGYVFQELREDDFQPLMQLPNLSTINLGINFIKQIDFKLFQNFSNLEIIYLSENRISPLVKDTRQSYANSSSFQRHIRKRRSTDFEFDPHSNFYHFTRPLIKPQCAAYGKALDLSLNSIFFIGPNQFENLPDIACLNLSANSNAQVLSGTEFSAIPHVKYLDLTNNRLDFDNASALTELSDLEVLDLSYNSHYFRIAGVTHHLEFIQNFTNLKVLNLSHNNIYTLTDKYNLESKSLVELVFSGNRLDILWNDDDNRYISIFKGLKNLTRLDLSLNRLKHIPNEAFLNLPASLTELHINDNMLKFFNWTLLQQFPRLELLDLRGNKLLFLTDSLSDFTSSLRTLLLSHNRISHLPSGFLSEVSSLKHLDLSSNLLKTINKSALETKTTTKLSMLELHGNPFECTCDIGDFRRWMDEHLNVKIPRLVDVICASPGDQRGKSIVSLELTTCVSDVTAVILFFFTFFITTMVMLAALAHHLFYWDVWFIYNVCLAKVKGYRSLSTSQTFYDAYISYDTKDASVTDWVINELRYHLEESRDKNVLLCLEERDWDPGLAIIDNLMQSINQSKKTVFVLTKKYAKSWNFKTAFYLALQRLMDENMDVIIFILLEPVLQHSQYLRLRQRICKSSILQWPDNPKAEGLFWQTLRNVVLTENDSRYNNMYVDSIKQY
Method: (§1) TLR7/8/9 Inhibition Reporter Assays
(§2) HEK-Blue™-cells (Invivogen) overexpressing human TLR7, TLR8 or TLR9 receptors were used for screening inhibitors of these receptors using an inducible SEAP (secreted embryonic alkaline phosphatase) reporter gene under the control of the IFN-β minimal promoter fused to five NF-κB and AP-1-binding sites. Briefly, cells are seeded into Greiner 384 well plates (15000 cells per well for TLR7, 20,000 for TLR8 and 25,000 for TLR9) and then treated with test compounds in DMSO to yield a final dose response concentration range of 0.05 nM-50 μM. After a 30 minute compound pre-treatment at room temperature, the cells are then stimulated with a TLR7 ligand (gardiquimod at a final concentration of 7.5 μM), TLR8 ligand (R848 at a final concentration of 15.9 μM) or TLR9 ligand (ODN2006 at a final concentration of 5 nM) to activate NF-κB and AP-1 which induce the production of SEAP. After a 22 hour incubation at 37° C., 5% CO2, SEAP levels are determined with the addition of HEK-Blue™ Detection reagent (Invivogen), a cell culture medium that allows for detection of SEAP, according to manufacturer's specifications. The percent inhibition is determined as the % reduction in the HEK-Blue signal present in wells treated with agonist plus DMSO alone compared to wells treated with a known inhibitor.

[2] = target: T2, human TLR7 (Homo sapiens, UniProt Q9NYK1); assay: TLR7 inhibition reporter assay (HEK-Blue SEAP); conditions: HEK-Blue cells overexpressing human TLR7, gardiquimod 7.5 μM, 22 hour incubation
T2 construct: host or cells: HEK-Blue cells (HEK293-derived reporter line)
T2 sequence (Q9NYK1 27-1049): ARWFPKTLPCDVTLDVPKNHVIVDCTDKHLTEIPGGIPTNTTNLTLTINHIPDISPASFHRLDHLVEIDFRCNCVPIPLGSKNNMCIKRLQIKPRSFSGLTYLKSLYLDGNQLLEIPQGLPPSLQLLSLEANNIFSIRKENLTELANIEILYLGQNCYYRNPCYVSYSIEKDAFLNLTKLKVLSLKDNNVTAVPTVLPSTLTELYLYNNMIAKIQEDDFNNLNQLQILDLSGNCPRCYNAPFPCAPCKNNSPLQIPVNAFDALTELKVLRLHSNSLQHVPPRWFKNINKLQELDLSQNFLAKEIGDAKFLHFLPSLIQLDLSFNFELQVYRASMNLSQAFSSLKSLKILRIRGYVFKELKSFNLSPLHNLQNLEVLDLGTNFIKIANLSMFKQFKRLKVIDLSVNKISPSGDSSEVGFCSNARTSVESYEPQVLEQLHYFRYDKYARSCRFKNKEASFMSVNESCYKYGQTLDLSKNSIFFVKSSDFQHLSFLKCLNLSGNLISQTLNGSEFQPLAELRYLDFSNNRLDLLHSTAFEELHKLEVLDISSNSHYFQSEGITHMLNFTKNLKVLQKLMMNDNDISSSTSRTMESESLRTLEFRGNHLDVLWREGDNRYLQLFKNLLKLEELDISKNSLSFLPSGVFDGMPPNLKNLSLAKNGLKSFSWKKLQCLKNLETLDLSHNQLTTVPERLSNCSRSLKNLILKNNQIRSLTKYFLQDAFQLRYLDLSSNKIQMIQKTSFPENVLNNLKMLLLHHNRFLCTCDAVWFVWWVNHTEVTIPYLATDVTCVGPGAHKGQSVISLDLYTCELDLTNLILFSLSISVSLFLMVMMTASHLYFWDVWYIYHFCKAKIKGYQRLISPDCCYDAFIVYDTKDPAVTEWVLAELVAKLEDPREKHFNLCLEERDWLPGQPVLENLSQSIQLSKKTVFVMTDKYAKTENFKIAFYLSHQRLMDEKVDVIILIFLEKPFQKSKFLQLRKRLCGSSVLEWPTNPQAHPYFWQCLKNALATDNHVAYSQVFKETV
Method: as §1, §2

[3] = target: T3, human TLR9 (Homo sapiens, UniProt Q9NR96); assay: TLR9 inhibition reporter assay (HEK-Blue SEAP); conditions: HEK-Blue cells overexpressing human TLR9, ODN2006 5 nM, 22 hour incubation
T3 construct: host or cells: HEK-Blue cells (HEK293-derived reporter line)
T3 sequence (Q9NR96 26-1032): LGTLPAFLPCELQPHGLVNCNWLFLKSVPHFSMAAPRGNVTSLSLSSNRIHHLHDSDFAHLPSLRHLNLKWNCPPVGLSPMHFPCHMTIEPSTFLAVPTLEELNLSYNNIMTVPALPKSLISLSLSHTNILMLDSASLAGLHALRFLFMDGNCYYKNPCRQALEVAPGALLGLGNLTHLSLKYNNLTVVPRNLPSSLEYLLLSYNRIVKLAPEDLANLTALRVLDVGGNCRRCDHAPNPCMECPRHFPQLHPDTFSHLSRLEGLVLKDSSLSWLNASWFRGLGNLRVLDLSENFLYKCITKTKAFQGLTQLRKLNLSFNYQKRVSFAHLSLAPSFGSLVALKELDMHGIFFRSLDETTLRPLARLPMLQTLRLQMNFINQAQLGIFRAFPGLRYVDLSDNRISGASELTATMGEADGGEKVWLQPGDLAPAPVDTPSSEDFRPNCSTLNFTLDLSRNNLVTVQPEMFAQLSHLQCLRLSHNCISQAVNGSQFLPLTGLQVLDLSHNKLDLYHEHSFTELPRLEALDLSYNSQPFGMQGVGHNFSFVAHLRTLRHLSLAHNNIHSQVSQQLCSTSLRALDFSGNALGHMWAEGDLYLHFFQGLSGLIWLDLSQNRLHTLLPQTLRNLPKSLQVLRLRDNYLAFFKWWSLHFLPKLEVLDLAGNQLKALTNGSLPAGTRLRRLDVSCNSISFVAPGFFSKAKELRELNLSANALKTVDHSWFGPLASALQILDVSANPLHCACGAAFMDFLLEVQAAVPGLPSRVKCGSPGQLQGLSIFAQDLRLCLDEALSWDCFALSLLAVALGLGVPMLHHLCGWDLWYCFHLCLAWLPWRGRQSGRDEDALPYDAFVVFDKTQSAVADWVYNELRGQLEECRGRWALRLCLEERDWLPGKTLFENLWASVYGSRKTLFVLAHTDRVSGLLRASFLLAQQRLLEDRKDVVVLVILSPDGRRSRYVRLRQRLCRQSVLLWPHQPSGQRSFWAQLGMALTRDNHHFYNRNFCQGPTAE
Method: as §1, §2

| Compound | pIC50 [1] | pIC50 [2] | pIC50 [3] |
| --- | --- | --- | --- |
| COc1cc(-c2[nH]c3ccc(C4CCN(C(=O)CCCCCCCCCCCCCCCCC(=O)N5CCC(c6ccc7[nH]c(-c8cc(OC)c9ncnn9c8)c(C(C)C)c7c6)CC5)CC4)cc3c2C(C)C)cn2ncnc12 [Comparator Compound C1, 1,18-bis(4-(3-isopropyl-2-(8-methoxy-[1,2,4]triazolo[1,5-a]pyridin-6-yl)-1H-indol-5-yl)piperidin-1-yl)octadecane-1,18-dione, reference compound] | ≤ 5.51 | < 5.51 | < 4.30 |
| COc1cc(-c2[nH]c3ccc(C4CCN(C(=O)CCCCCCCCCCCCCCCCCC(=O)N5CCC(c6ccc7[nH]c(-c8cc(OC)c9ncnn9c8)c(C(C)C)c7c6)CC5)CC4)cc3c2C(C)C)cn2ncnc12 [Comparator Compound C3, reference compound] | < 5.51 | < 5.51 | < 4.30 |
| COc1cc(-c2[nH]c3ccc(C4CCN(CCNC(C)=O)CC4)cc3c2C(C)C)cn2ncnc12 [Comparator Compound C5, N-(2-(4-(3-isopropyl-2-(8-methoxy-[1,2,4]triazolo[1,5-a]pyridin-6-yl)-1H-indol-5-yl)piperidin-1-yl)ethyl)acetamide, reference compound] | 8.74 | 9.02 | 5.45 |
| COc1cc(-c2[nH]c3ccc(C4CCN(CCNC(=O)CCCCCCCCCCC(=O)NCCN5CCC(c6ccc7[nH]c(-c8cc(OC)c9ncnn9c8)c(C(C)C)c7c6)CC5)CC4)cc3c2C(C)C)cn2ncnc12 [Example 3, N1,N12-bis(2-(4-(3-isopropyl-2-(8-methoxy-[1,2,4]triazolo[1,5-a]pyridin-6-yl)-1H-indol-5-yl)piperidin-1-yl)ethyl)dodecanediamide] | 9.49 | 9.51 | 7.00 |
| COc1cc(-c2[nH]c3ccc(C4CCN(CCNC(=O)CCCCCCCCCC(=O)NCCN5CCC(c6ccc7[nH]c(-c8cc(OC)c9ncnn9c8)c(C(C)C)c7c6)CC5)CC4)cc3c2C(C)C)cn2ncnc12 [Example 4, N1,N11-bis(2-(4-(3-isopropyl-2-(8-methoxy-[1,2,4]triazolo[1,5-a]pyridin-6-yl)-1H-indol-5-yl)piperidin-1-yl)ethyl)undecanediamide] | 9.66 | 9.60 | 7.03 |
| COc1cc(-c2[nH]c3ccc(C4CCN(CCNC(=O)CCCCCCCC(=O)NCCN5CCC(c6ccc7[nH]c(-c8cc(OC)c9ncnn9c8)c(C(C)C)c7c6)CC5)CC4)cc3c2C(C)C)cn2ncnc12 [Example 5, N1,N9-bis(2-(4-(3-isopropyl-2-(8-methoxy-[1,2,4]triazolo[1,5-a]pyridin-6-yl)-1H-indol-5-yl)piperidin-1-yl)ethyl)nonanediamide] | 9.74 | 9.82 | 6.85 |

Continued, values first:

| pIC50 [1] | pIC50 [2] | pIC50 [3] | Compound |
| --- | --- | --- | --- |
| 8.68 | 9.22 | 5.70 | COc1cc(-c2[nH]c3ccc(C4CCN(CCN)CC4)cc3c2C(C)C)cn2ncnc12 [Comparator Compound C4, 2-(4-(3-isopropyl-2-(8-methoxy-[1,2,4]triazolo[1,5-a]pyridin-6-yl)-1H-indol-5-yl)piperidin-1-yl)ethan-1-amine, reference compound] |
| 8.85 | 9.04 | 6.92 | COc1cc(-c2[nH]c3ccc(C4CCN(CCNC(=O)CCCCCCCCCCCC(=O)NCCN5CCC(c6ccc7[nH]c(-c8cc(OC)c9ncnn9c8)c(C(C)C)c7c6)CC5)CC4)cc3c2C(C)C)cn2ncnc12 [Example 1, N1,N13-bis(2-(4-(3-isopropyl-2-(8-methoxy-[1,2,4]triazolo[1,5-a]pyridin-6-yl)-1H-indol-5-yl)piperidin-1-yl)ethyl)tridecanediamide] |
| 8.80 | 8.72 | 6.83 | COc1cc(-c2[nH]c3ccc(C4CCN(CCNC(=O)CCCCCCCCCCCCC(=O)NCCN5CCC(c6ccc7[nH]c(-c8cc(OC)c9ncnn9c8)c(C(C)C)c7c6)CC5)CC4)cc3c2C(C)C)cn2ncnc12 [Example 2, N1,N14-bis(2-(4-(3-isopropyl-2-(8-methoxy-[1,2,4]triazolo[1,5-a]pyridin-6-yl)-1H-indol-5-yl)piperidin-1-yl)ethyl)tetradecanediamide] |
